EP4417602A1, “SUBSTITUTED PYRAZOLE CARBOXAMIDES, SALTS THEREOF AND THEIR USE AS HERBICIDALLY ACTIVE SUBSTANCES” (Bayer AG, priority 2023, dated 2024)

Legend:
[1] = test system: ECHCG; test: A. Herbicidal pre-emergence action on harmful plants (Tables A); assay type: in vivo, Echinochloa crus-galli; settings: visual grading after ca. 3 weeks vs untreated controls, 100% = plants have died off, 0% = as control plants
Method in brief: (§1)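 Values are visual percent damage relative to untreated controls, scored ca. 3 weeks after the compound was sprayed on the covering soil of sown pots (sandy loam) at rates up to 1280 g/ha, formulated as WP or EC with 0.5% additive.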

[2] = test system: LOLRI; test: as above; assay type: in vivo, Lolium rigidum; settings: visual grading after ca. 3 weeks vs untreated controls, 100% = plants have died off, 0% = as control plants
Method in brief: as §1

[3] = test system: MATIN; test: as above; assay type: in vivo, Matricaria inodora; settings: visual grading after ca. 3 weeks vs untreated controls, 100% = plants have died off, 0% = as control plants
Method in brief: as §1

[4] = test system: SETVI; test: as above; assay type: in vivo, Setaria viridis; settings: visual grading after ca. 3 weeks vs untreated controls, 100% = plants have died off, 0% = as control plants
Method in brief: as §1

[5] = test system: STEME; test: as above; assay type: in vivo, Stellaria media; settings: visual grading after ca. 3 weeks vs untreated controls, 100% = plants have died off, 0% = as control plants
Method in brief: as §1

[6] = test system: POAAN; test: as above; assay type: in vivo, Poa annua
Method in brief: as §1

[7] = test system: ALOMY; test: as above; assay type: in vivo, Alopecurus myosuroides
Method in brief: as §1

[8] = test system: DIGSA; test: as above; assay type: in vivo, Digitaria sanguinalis
Method in brief: as §1

[9] = test system: MATIN; test: B. Herbicidal post-emergence action on harmful plants (Tables B); assay type: in vivo, Matricaria inodora; settings: application rate 1280 g/ha; Table B4a
Experimental: (§2) Seeds of mono- and dicotyledonous weed plants were placed in plastic pots in sandy loam soil (doubly sown with in each case one species of mono- or dicotyledonous weed plants per pot), covered with soil and cultivated in a greenhouse under controlled growth conditions. 2 to 3 weeks after sowing, the test plants were treated at the one-leaf stage. The compounds of the invention, formulated in the form of wettable powders (WP) or as emulsion concentrates (EC), were applied onto the green parts of the plants as aqueous suspension or emulsion with addition of 0.5% additive at a water application rate of 600 liters per hectare (converted). After the test plants had been kept in the greenhouse under optimum growth conditions for about 3 weeks, the activity of the preparations was rated visually in comparison to untreated controls. For example, 100% activity = the plants have died, 0% activity = like control plants. Tables B1 to B12, below, show the effects of selected compounds of the general formula (I) according to table 1 on various harmful plants and an application rate corresponding to 1280 g/ha or below obtained by the experimental procedure mentioned above. Table B1a: post-emergence activity at 1280g/ha against ABUTH in %

[10] = test system: SETVI; test: as above; assay type: in vivo, Setaria viridis; settings: application rate 1280 g/ha; Table B5
Experimental: as §2

[11] = test system: POAAN; test: as above; assay type: in vivo, Poa annua
Method in brief: (§3)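 Greenhouse weeds grown in sandy loam were sprayed post-emergence at the one-leaf stage, 2-3 weeks after sowing. Compounds were applied as WP or EC in water with 0.5% additive at 600 L/ha, at 1280 g/ha or below. Visual damage was rated after about 3 weeks versus untreated plants (0-100%).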

[12] = test system: DIGSA; test: as above; assay type: in vivo, Digitaria sanguinalis; settings: application rate 1280 g/ha; Table B12a
Experimental: as §2

[13] = test system: AMARE; test: A. Herbicidal pre-emergence action on harmful plants (Tables A); assay type: in vivo, Amaranthus retroflexus
Method in brief: as §1

[14] = test system: ABUTH; test: B. Herbicidal post-emergence action on harmful plants (Tables B); assay type: in vivo, Abutilon theophrasti; settings: application rate 1280 g/ha; Table B1a
Experimental: as §2

[15] = test system: ECHCG; test: as above; assay type: in vivo, Echinochloa crus-galli; settings: application rate 1280 g/ha; Table B2a
Method in brief: as §3

[16] = test system: STEME; test: as above; assay type: in vivo, Stellaria media; settings: application rate 1280 g/ha; Table B6
Experimental: as §2

[17] = test system: VERPE; test: as above; assay type: in vivo, Veronica persica
Method in brief: as §3

[18] = test system: ALOMY; test: as above; assay type: in vivo, Alopecurus myosuroides; settings: application rate 1280 g/ha; Table B9a
Experimental: as §2

[19] = application rate 80 g/ha, Table A7c
[20] = application rate 320 g/ha, Table A7b
[21] = application rate 1280 g/ha, visual grading after ca. 3 weeks vs untreated controls, 100% = plants have died off, 0% = as control plants
[22] = application rate 1280 g/ha, Table A9a
[23] = application rate 80 g/ha, Table A12c
[24] = application rate 320 g/ha, Table A12b
[25] = application rate 1280 g/ha, Table A12a
[26] = application rate 1280 g/ha, Table B7a
[27] = application rate 1280 g/ha, Table B11a

Row | Compound | pre-emergence activity against ECHCG ([1]; application rate 320 g/ha) [%] | pre-emergence activity against ECHCG ([1]; application rate 1280 g/ha) [%] | pre-emergence activity against LOLRI ([2]; application rate 320 g/ha) [%] | pre-emergence activity against LOLRI ([2]; application rate 1280 g/ha) [%] | pre-emergence activity against MATIN ([3]; application rate 320 g/ha) [%] | pre-emergence activity against MATIN ([3]; application rate 1280 g/ha) [%] | pre-emergence activity against SETVI ([4]; application rate 320 g/ha) [%] | pre-emergence activity against SETVI ([4]; application rate 1280 g/ha) [%] | pre-emergence activity against STEME ([5]; application rate 320 g/ha) [%] | pre-emergence activity against STEME ([5]; application rate 1280 g/ha) [%] | pre-emergence activity against POAAN [6, 19] [%] | pre-emergence activity against POAAN [6, 20] [%] | pre-emergence activity against POAAN [6, 21] [%] | pre-emergence activity against ALOMY [7, 22] [%] | pre-emergence activity against DIGSA [8, 24] [%] | pre-emergence activity against DIGSA [8, 25] [%] | post-emergence activity against MATIN [9] [%] | post-emergence activity against SETVI [10] [%] | post-emergence activity against POAAN [11, 26] [%] | post-emergence activity against ECHCG [15] [%] | further results
1 | COCc1nn(C)cc1C(=O)N1CCCC1Cc1cccc(F)c1F (single isomer, unassigned) [Example I-088] | 90 | 100 | 100 | 100 | 90 | 90 | 100 | 100 | 90 | 90 | 90 | 100 | 100 | 100 | 100 | 100 | 90 | 90 | 90 |  | pre-emergence activity against ECHCG ([1]; application rate 80 g/ha): 90%; pre-emergence activity against LOLRI ([2]; application rate 80 g/ha): 90%; pre-emergence activity against MATIN ([3]; application rate 80 g/ha): 90%; pre-emergence activity against SETVI ([4]; application rate 80 g/ha): 90%; pre-emergence activity against STEME ([5]; application rate 80 g/ha): 90%; pre-emergence activity against ALOMY ([7]; application rate 320 g/ha, Table A9b): 90%; pre-emergence activity against DIGSA [8, 23]: 100%; post-emergence activity against DIGSA [12]: 90%
2 | COCc1nn(C)cc1C(=O)N1CCCC1C(O)c1ccccc1F (single isomer, unassigned) [Example I-054] | 90 | 100 |  | 90 | 90 | 90 | 90 | 90 | 90 | 90 | 90 | 90 | 100 |  | 90 | 100 |  | 90 | 90 |  | 
3 | COCc1nn(C)cc1C(=O)N1CCCC1Cc1ccccc1C (single isomer, unassigned) [Example I-084] | 90 | 90 | 90 | 100 | 90 | 90 | 90 | 100 | 90 | 90 | 100 | 100 | 100 | 90 | 90 | 90 | 90 |  | 100 | 90 | pre-emergence activity against ECHCG ([1]; application rate 80 g/ha): 90%; pre-emergence activity against MATIN ([3]; application rate 80 g/ha): 90%; pre-emergence activity against SETVI ([4]; application rate 80 g/ha): 90%; pre-emergence activity against AMARE ([13]; application rate 320 g/ha, Table A8b): 90%; pre-emergence activity against AMARE [13, 21]: 90%; pre-emergence activity against DIGSA [8, 23]: 90%; post-emergence activity against ABUTH [14]: 90%; post-emergence activity against STEME [16]: 90%; post-emergence activity against POAAN ([11]; application rate 320 g/ha, Table B7b): 100%; post-emergence activity against VERPE ([17]; application rate 320 g/ha, Table B11b): 90%; post-emergence activity against VERPE [17, 27]: 90%; post-emergence activity against DIGSA [12]: 90%
4 | COCc1nn(C)cc1C(=O)N1CCCC1C(C)c1ccccc1F (centres unmarked) [Example I-021] |  | 100 | 100 | 100 |  | 90 | 100 | 100 |  |  |  | 100 | 100 | 90 | 90 | 100 | 90 | 90 | 90 | 90 | 
5 | Cn1cc(C(=O)N2CCCC2Cc2cc(F)ccc2F)c(COc2ccccc2)n1 (racemic) [Example I-010] |  |  |  |  |  |  |  |  |  | 90 |  | 90 | 100 | 100 |  | 90 |  |  |  | 90 | post-emergence activity against ABUTH [14]: 90%; post-emergence activity against ALOMY [18]: 90%; post-emergence activity against VERPE [17, 27]: 90%
